Reference: publication PMC7554048, “FBI-1 enhanced the resistance of triple-negative breast cancer cells to chemotherapeutic agents via the miR-30c/PXR axis” (Cell Death & Disease, 2020)
Read-outs that look alike come from different tables or passages of the source.

Key:
[1] = Olaparib sustained in cultured TNBC cells, LC-MS/MS (half-life); assay type: in vitro ADME, human; settings: human
Protocol: (§1) TNBC cells transfected with plasmids were used for the pharmacokinetic experiments to examine the amount of olaparib sustained in the cells. For the cell-based experiments, cells were treated with 1 μmol/L concentration of olaparib for 12 h[33]. Then, cells were harvested at indicated time-points. For the animal experiments, TNBC cells were injected into the subcutaneous position to form subcutaneous tumor tissues. After 2–3 weeks’ growth, when the tumor volumes reached 1500–2000 mm^3, the solution of olaparib was injected into the subcutaneous tumors. Then, the tumor tissues were harvested at indicated times[34],[35]. The olaparib in cells or tumor tissues was extracted by acetonitrile (ACN), and the amount of olaparib sustained in cells or tumor tissues at each time point was determined by liquid chromatography–mass spectrometry/mass spectrometry (LC-MS/MS), following the methods established by Krens et al.[36]. The sustaining rates of olaparib were calculated as (the amount of olaparib at each time)/(the amount of olaparib at 0-time) × 100%. The sustaining curves or the half-time life (t1/2) of olaparib was obtained by the sustained rates of olaparib.

[2] = Olaparib sustained in subcutaneous TNBC tumors after intratumoral injection, LC-MS/MS (half-life); assay type: in vivo, nude mice; settings: nude, mouse, subcutaneous tumor tissue, other: injected into the subcutaneous tumors (intratumoral), read-out: Half life values of olaparib (t1/2) In subcutaneous tumors (converted)
Protocol: as §1

HCC-1937 = assay: Cell-survival SRB assay; assay type: cell-based; settings: Homo sapiens, HCC1937, 48 h, read-out: The IC50 values of olaparib
Protocol: (§2) The TNBC cells were treated with the indicated concentration of agents (10, 3, 1, 0.3, 0.1, 0.03, or 0.01 μmol/L for olaparib) for 48 h. Then, cells were analyzed by the Sulforhodamine B (SRB) assay, following the methods provided by and Li et al.[23] and Guan et al.[24]. The relative survival cells were determined by the O.D. values (optical density values) at 510 nm. […] The IC50 values of agents were calculated from the inhibition rates[23],[24]. The colony formation experiments were performed following the method desicripted by Fang et al.[5]. TNBC cells were transfected with the plasmids and treated with solvent control or the olaparib. The cells were analyzed by the colony-formation.

MDA-MB-436 = assay: Cell-survival SRB assay; assay type: cell-based; settings: Homo sapiens, MDA-MB-436, 48 h, read-out: The IC50 values of olaparib
Protocol: as §2

PDC No. 2 = assay: Cell-survival SRB assay; assay type: cell-based; settings: Homo sapiens, 48 h, read-out: IC50 values of olparib
Protocol: as §2

PDC No. 3 = assay: Cell-survival SRB assay; assay type: cell-based; settings: Homo sapiens, 48 h, read-out: IC50 values of olparib
Protocol: as §2

PDC No. 6 = assay: Cell-survival SRB assay; assay type: cell-based; settings: Homo sapiens, 48 h, read-out: IC50 values of olparib
Protocol: as §2

PDC No. 7 = assay: Cell-survival SRB assay; assay type: cell-based; settings: Homo sapiens, 48 h, read-out: IC50 values of olparib
Protocol: as §2

PDC No. 9 = assay: Cell-survival SRB assay; assay type: cell-based; settings: Homo sapiens, 48 h, read-out: IC50 values of olparib
Protocol: as §2

TNBC PDC No. 3 = assay: In vivo antitumor effect of olaparib on subcutaneous TNBC tumors; settings: nude mice, oral administration once every two days, 4–5 weeks
Protocol: Female nude mice, 4–6 weeks old, were purchased from Beijing Si-Bei-Fu Corporation, China. The animal experiments were approved by the Institutional Animal Care and Use Committee of the Chinese PLA General Hospital, China. All animal experiments (n = 10 for each group; animals were randomly divided into the groups) were performed according to the UK Animals (Scientific Procedures) Act, 1986, and associated guidelines. TNBC cells transfected with plasmids were treated with olaparib via oral administration once every two days. After 4–5 weeks’ treatment, the tumor tissues of the mice were harvested. The tumor volumes or tumor weights were determined following the methods described by Jia et al.[37]. The inhibition rates of olaparib were calculated by the tumor volumes or tumor weights.

O=C(c1cc(Cc2n[nH]c(=O)c3ccccc23)ccc1F)N1CCN(C(=O)C2CC2)CC1 [olaparib]
half-life at 1 μmol/L ([1]; HCC-1937, FBI-1 + miR-30c, read-out: half life values of olaparib (t1/2) (converted)): 3440 ± 535 min | half-life at 1 μmol/L ([1]; HCC-1937 TNBC cells, HCC-1937, FBI-1, read-out: half life values of olaparib (t1/2) (converted)): 566 ± 34.2 min | half-life at 1 μmol/L ([1]; HCC-1937 TNBC cells, HCC-1937, control, read-out: half life values of olaparib (t1/2) (converted)): 1870 ± 280 min | half-life at 1 μmol/L ([1]; HCC-1937 TNBC cells, HCC-1937, miR-30c + PXR^Mut, read-out: half life values of olaparib (t1/2) (converted)): 513 ± 18 min | half-life at 1 μmol/L ([1]; HCC-1937 TNBC cells, HCC-1937, miR-30c, read-out: half life values of olaparib (t1/2) (converted)): 4100 ± 806 min | half-life at 1 μmol/L ([1]; HCC-1937 TNBC cells, HCC-1937, siFBI-1 + miR-30c inhibitor, read-out: half life values of olaparib (t1/2) (converted)): 1110 ± 245 min | half-life at 1 μmol/L ([1]; HCC-1937 TNBC cells, HCC-1937, siFBI-1, read-out: half life values of olaparib (t1/2) (converted)): 3010 ± 337 min | half-life at 1 μmol/L ([1]; MDA-MB-436, FBI-1 + miR-30c, read-out: half life values of olaparib (t1/2) (converted)): 2650 ± 345 min | half-life at 1 μmol/L ([1]; MDA-MB-436 TNBC cells, MDA-MB-436, FBI-1, read-out: half life values of olaparib (t1/2) (converted)): 802 ± 165 min | half-life at 1 μmol/L ([1]; MDA-MB-436 TNBC cells, MDA-MB-436, control, read-out: half life values of olaparib (t1/2) (converted)): 1730 ± 259 min | half-life at 1 μmol/L ([1]; MDA-MB-436 TNBC cells, MDA-MB-436, miR-30c + PXR^Mut, read-out: half life values of olaparib (t1/2) (converted)): 669 ± 260 min | half-life at 1 μmol/L ([1]; MDA-MB-436 TNBC cells, MDA-MB-436, miR-30c, read-out: half life values of olaparib (t1/2) (converted)): 3080 ± 428 min | half-life at 1 μmol/L ([1]; MDA-MB-436 TNBC cells, MDA-MB-436, siFBI-1 + miR-30c inhibitor, read-out: half life values of olaparib (t1/2) (converted)): 1220 ± 329 min | half-life at 1 μmol/L ([1]; MDA-MB-436 TNBC cells, MDA-MB-436, siFBI-1, read-out: half life values of olaparib (t1/2) (converted)): 2840 ± 445 min | half-life at 1 μmol/L ([1]; TNBC cells PDC No. 2, PDC No. 2, Control, read-out: Half life values of olaparib (t1/2) In cultured cells (converted)): 1300 ± 413 min | half-life at 1 μmol/L ([1]; TNBC cells PDC No. 2, PDC No. 2, siFBI-1, read-out: Half life values of olaparib (t1/2) In cultured cells (converted)): 3650 ± 291 min | half-life at 1 μmol/L ([1]; TNBC cells PDC No. 3, PDC No. 3, Control (Table 3), read-out: Half life values of olaparib (t1/2) In cultured cells (converted)): 1500 ± 469 min | half-life at 1 μmol/L ([1]; TNBC cells PDC No. 3, PDC No. 3, Control (Table 4), read-out: Half-life values of olparib (t1/2) (converted)): 1640 ± 258 min | half-life at 1 μmol/L ([1]; TNBC cells PDC No. 3, PDC No. 3, FBI-1 (Table 3), read-out: Half life values of olaparib (t1/2) In cultured cells (converted)): 699 ± 233 min | half-life at 1 μmol/L ([1]; TNBC cells PDC No. 3, PDC No. 3, FBI-1 (Table 4), read-out: Half-life values of olparib (t1/2) (converted)): 636 ± 272 min | half-life at 1 μmol/L ([1]; TNBC cells PDC No. 3, PDC No. 3, siFBI-1, read-out: Half life values of olaparib (t1/2) In cultured cells (converted)): 3560 ± 535 min | half-life at 1 μmol/L ([1]; TNBC cells PDC No. 3, with ketoconazole (concentration not stated), PDC No. 3, FBI-1 + ketoconazole, read-out: Half-life values of olparib (t1/2) (converted)): 1570 ± 231 min | half-life at 1 μmol/L ([1]; TNBC cells PDC No. 6, PDC No. 6, Control, read-out: Half life values of olaparib (t1/2) In cultured cells (converted)): 1170 ± 350 min | half-life at 1 μmol/L ([1]; TNBC cells PDC No. 6, PDC No. 6, siFBI-1, read-out: Half life values of olaparib (t1/2) In cultured cells (converted)): 3080 ± 691 min | half-life at 1 μmol/L ([1]; TNBC cells PDC No. 7, PDC No. 7, Control, read-out: Half life values of olaparib (t1/2) In cultured cells (converted)): 1260 ± 301 min | half-life at 1 μmol/L ([1]; TNBC cells PDC No. 7, PDC No. 7, siFBI-1, read-out: Half life values of olaparib (t1/2) In cultured cells (converted)): 3330 ± 598 min | half-life at 1 μmol/L ([1]; TNBC cells PDC No. 9, PDC No. 9, Control (Table 3), read-out: Half life values of olaparib (t1/2) In cultured cells (converted)): 2020 ± 330 min | half-life at 1 μmol/L ([1]; TNBC cells PDC No. 9, PDC No. 9, Control (Table 4), read-out: Half-life values of olparib (t1/2) (converted)): 2180 ± 398 min | half-life at 1 μmol/L ([1]; TNBC cells PDC No. 9, PDC No. 9, FBI-1 (Table 3), read-out: Half life values of olaparib (t1/2) In cultured cells (converted)): 1090 ± 266 min | half-life at 1 μmol/L ([1]; TNBC cells PDC No. 9, PDC No. 9, FBI-1 (Table 4), read-out: Half-life values of olparib (t1/2) (converted)): 892 ± 173 min | half-life at 1 μmol/L ([1]; TNBC cells PDC No. 9, with ketoconazole (concentration not stated), PDC No. 9, FBI-1 + ketoconazole, read-out: Half-life values of olparib (t1/2) (converted)): 2260 ± 333 min | half-life ([2]; PDC No. 2, Control): 1810 ± 409 min | half-life ([2]; PDC No. 2, siFBI-1): 3220 ± 440 min | half-life ([2]; PDC No. 3, Control): 1930 ± 553 min | half-life ([2]; PDC No. 3, FBI-1): 1070 ± 519 min | half-life ([2]; PDC No. 3, siFBI-1): 3760 ± 406 min | half-life ([2]; PDC No. 6, Control): 1720 ± 590 min | half-life ([2]; PDC No. 6, siFBI-1): 2620 ± 463 min | half-life ([2]; PDC No. 7, Control): 1880 ± 597 min | half-life ([2]; PDC No. 7, siFBI-1): 3500 ± 544 min | half-life ([2]; PDC No. 9, Control): 2160 ± 500 min | half-life ([2]; PDC No. 9, FBI-1): 1360 ± 262 min | IC50 (HCC-1937; HCC-1937, FBI-1 + miR-30c, 48 h): 240 ± 40 nM | IC50 (HCC-1937; HCC-1937, FBI-1, 48 h): 3700 ± 380 nM | IC50 (HCC-1937; HCC-1937, control, 48 h): 900 ± 330 nM | IC50 (HCC-1937; HCC-1937, miR-30c + PXR^Mut, 48 h): 4900 ± 820 nM | IC50 (HCC-1937; HCC-1937, miR-30c, 48 h): 100 ± 50 nM | IC50 (HCC-1937; HCC-1937, siFBI-1 + miR-30c inhibitor, 48 h): 2210 ± 510 nM | IC50 (HCC-1937; HCC-1937, siFBI-1, 48 h): 130 ± 80 nM | IC50 (MDA-MB-436; MDA-MB-436, FBI-1 + miR-30c, 48 h): 210 ± 20 nM | IC50 (MDA-MB-436; MDA-MB-436, FBI-1, 48 h): 2460 ± 790 nM | IC50 (MDA-MB-436; MDA-MB-436, control, 48 h): 790 ± 280 nM | IC50 (MDA-MB-436; MDA-MB-436, miR-30c + PXR^Mut, 48 h): 2750 ± 400 nM | IC50 (MDA-MB-436; MDA-MB-436, miR-30c, 48 h): 100 ± 30 nM | IC50 (MDA-MB-436; MDA-MB-436, siFBI-1 + miR-30c inhibitor, 48 h): 1820 ± 310 nM | IC50 (MDA-MB-436; MDA-MB-436, siFBI-1, 48 h): 140 ± 10 nM | IC50 (PDC No. 2; PDC No. 2, control): 1320 ± 250 nM | IC50 (PDC No. 2; PDC No. 2, siFBI-1, 48 h): 220 ± 20 nM | IC50 (PDC No. 3; PDC No. 3, FBI-1, 48 h): 8750 ± 1000 nM | IC50 (PDC No. 3; PDC No. 3, control): 940 ± 100 nM | IC50 (PDC No. 3; PDC No. 3, ketoconazole + FBI-1, 48 h): 630 ± 110 nM | IC50 (PDC No. 3; PDC No. 3, siFBI-1, 48 h): 100 ± 50 nM | IC50 (PDC No. 6; PDC No. 6, control): 1740 ± 820 nM | IC50 (PDC No. 6; PDC No. 6, siFBI-1, 48 h): 250 ± 40 nM | IC50 (PDC No. 7; PDC No. 7, control): 2040 ± 770 nM | IC50 (PDC No. 7; PDC No. 7, siFBI-1, 48 h): 330 ± 100 nM | IC50 (PDC No. 9; PDC No. 9, FBI-1, 48 h): 9880 ± 650 nM | IC50 (PDC No. 9; PDC No. 9, control): 850 ± 330 nM | IC50 (PDC No. 9; PDC No. 9, ketoconazole + FBI-1, 48 h): 1640 ± 520 nM | subcutaneous growth of TNBC cells (TNBC PDC No. 3): inhibited the subcutaneous growth of TNBC cells
